Measured values as given in US12152030B2 (NOVOSTAR PHARMACEUTICALS, LTD., priority 2019, dated 2024).
Counter-ions that a name gives are not always drawn.

Legend:
Phosphorylated eIF4E = experiment: Intracellular peIF4E signaling assay; type: cell-based; settings: 2 h; two hours incubation at 37° C.; read-out: peIF4E signaling cell assay IC50
Experimental: Phosphorylated eIF4E was determined using CisBio peIF4E assay kit (CisBio, catalog number 64EF4PEG). The cells were plated in a 96-well cell culture plate in a volume of 90 μL, and the number of cells per well was 5*10^4. The compounds (10×) were subjected to 3-fold serial dilution, added to the cell plate in a volume of 10 μL with the final DMSO concentration being 1%, and incubated at 37° C. for two hours. The cell plate was centrifuged at 300 g for 5 minutes, and the cell supernatant was carefully removed. The cell plate was immediately added with 50 μL of cell lysis buffer […] and incubated at 25° C. with shaking for at least 30 minutes. After homogenization by pipetting, 16 μL of cell lysate was transferred from the 96-well cell culture plate to a 384-well small-volume microwell plate. According to the kit instruction, an antibody mixture solution was prepared with a detection buffer, and was added in a volume of 4 μL to the 384-well small-volume microwell plate containing the cell lysate. The plate was covered with a plate sealer, incubated overnight at 25° C., and was read for fluorescence emission at two different wavelengths (665 nm and 615 nm) on the EnVision microplate reader counter. The emission ratio was imported into a GraphPadPrism software to fit the compound concentration (IC50) required for 50% inhibition of enzyme activity.
In this respect, IC50 values which are less than 0.05 μM were marked as “+++”, which are from 0.05 to 1.0 μM were marked as “++”, and which are greater than 1.0 and up to 100 μM were marked as “+”, and NA meant “not detected”.

MNK1 = MNK1 (Homo sapiens, UniProt Q9BUB5); experiment: MNK biological enzyme assay (HTRF kinase assay), MNK1; type: biochemical; parameters: purchased ThermoFisher PV6023; settings: 3 ng/ul MNK1, 1 μM STK1 peptide, 100 μM ATP
Chain of MNK1 (Q9BUB5 whole entry): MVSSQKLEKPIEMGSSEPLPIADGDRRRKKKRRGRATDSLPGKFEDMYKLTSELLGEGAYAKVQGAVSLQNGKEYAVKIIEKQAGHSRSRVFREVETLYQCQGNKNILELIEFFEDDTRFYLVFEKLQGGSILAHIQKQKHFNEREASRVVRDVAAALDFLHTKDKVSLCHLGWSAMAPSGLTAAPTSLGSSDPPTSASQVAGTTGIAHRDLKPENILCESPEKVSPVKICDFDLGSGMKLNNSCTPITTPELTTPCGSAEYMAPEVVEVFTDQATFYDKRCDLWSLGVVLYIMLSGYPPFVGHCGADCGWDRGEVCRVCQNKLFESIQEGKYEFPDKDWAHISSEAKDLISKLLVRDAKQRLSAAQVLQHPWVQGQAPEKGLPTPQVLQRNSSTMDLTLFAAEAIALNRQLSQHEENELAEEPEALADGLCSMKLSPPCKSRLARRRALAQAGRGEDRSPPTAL
Experimental: (§1) A HTRF kinase assay kit (Cisbio, catalog number 62ST1PEB) was used to determine the MNK inhibitory activity of the compounds. All kinase reactions were performed in the reaction buffer (provided in the kit). The final MNK1 reaction involved 3 ng/ul recombinant MNK1 (ThermoFisher, PV6023), 1 μM MNK substrate peptide STK1 (provided in the kit), 100 μM ATP, and different concentrations of the inhibitory compounds of interest. The final MNK2 reaction involved 1 ng/μl recombinant MNK2 (ThermoFisher, PV5607), 1 μM MNK substrate peptide STK1 (provided in the kit), 100 μM ATP, and different concentrations of the inhibitory compounds of interest. The final DMSO concentration in each of the reactions was 1%.
(§2) The kinase reaction was performed in a final volume of 10 μl in a 384-well white flat-bottomed polystyrene plate. The MNK1/2 enzyme was pre-incubated with the compound and substrate peptide for 5 minutes, and then ATP was added thereto. After addition of ATP, the kinase reaction was incubated at 25° C. for 120 minutes or 60 minutes. The reaction was subsequently terminated by adding 5 μl of EU3+ substrate antibody detection reagent and 5 μl of XL665 detection reagent, and incubating for another 60 minutes. The luminescent signal was detected with an EnVision microplate reader counter (Perkin Elmer), and the signal from 10-point dilution series of the compounds was used to calculate the compound concentration (IC50) required to achieve 50% inhibition of enzyme activity.
(§3) In this respect, IC50 values which are less than 0.01 μM were marked as “+++”, which are from 0.01 to 0.1 μM were marked as “++”, and which are greater than 0.1 and up to 10.0 μM were marked as “+”, and NA meant “not detected”.

MNK2 = MNK2 (Homo sapiens, UniProt Q9HBH9); experiment: MNK biological enzyme assay (HTRF kinase assay), MNK2; type: biochemical; parameters: purchased ThermoFisher PV5607; settings: 1 ng/μl MNK2, 1 μM STK1 peptide, 100 μM ATP
Chain of MNK2 (Q9HBH9 whole entry): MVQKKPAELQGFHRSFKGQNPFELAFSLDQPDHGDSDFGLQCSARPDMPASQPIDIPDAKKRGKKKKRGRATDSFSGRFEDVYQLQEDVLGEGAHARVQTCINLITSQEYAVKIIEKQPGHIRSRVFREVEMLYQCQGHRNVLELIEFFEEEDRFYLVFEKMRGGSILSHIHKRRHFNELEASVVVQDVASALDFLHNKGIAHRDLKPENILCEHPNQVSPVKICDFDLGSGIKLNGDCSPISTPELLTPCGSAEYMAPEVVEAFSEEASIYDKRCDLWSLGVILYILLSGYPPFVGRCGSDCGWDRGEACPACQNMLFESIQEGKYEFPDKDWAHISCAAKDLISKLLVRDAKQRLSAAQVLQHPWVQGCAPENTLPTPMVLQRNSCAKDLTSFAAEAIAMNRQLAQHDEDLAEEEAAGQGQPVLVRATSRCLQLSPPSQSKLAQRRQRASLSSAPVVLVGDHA
Experimental: as §1, §2, §3

Structure (SMILES)	IC50 (Phosphorylated eIF4E) [µM]	IC50 (MNK1) [µM]	IC50 (MNK2) [µM]
Cc1c2n(c(=O)c3[nH]c4cc(N)ncc4c(=O)c13)C1(CCCC1)NC2=O [Compound 5, 8-amino-12-methyl-2H-spiro[cyclopentane-1,3-imidazo[1,5:1,6]pyridine[3,4-b][1,6]naphthyridine]-1,5,11(6H)-trione]	< 0.05	< 0.01	< 0.01
Cc1c2c(c(=O)n3c1C(=O)NC31CCN(C)CC1)Nc1cc(N)ncc1C2 [Compound 18, 8-amino-1′,12-dimethyl-6,11-dihydro-2H-spiro[imidazo[1′,5′:1,6]pyrido[3,4-b][1,6]naphthyridine-3,4′-piperidine]-1,5-dione]	0.05 to 1		
Cc1c2c(c(=O)n3c1C(=O)NC31CCCCC1)Nc1cc(NC(=O)C(C)C)ncc1C2 [Compound 24, N-(12methyl-1,5-dioxo-1,5,6,11-tetrahydro-2H-spiro[cyclohexane-1,3-imidazole[1,5:1,6]pyrido[3,4b][1,6]naphthyridine]-8-yl)isobutyramide]	< 0.05	< 0.01	< 0.01
Cc1c2c(c(=O)n3c1C(=O)NC31CCCCC1)Nc1ccncc1C2 [Compound 16, 12-methyl-6,11-dihydro-1H-spiro[cyclohexane-1,3-imidazo[1,5:1,6]pyrido[3,4-b][1,6]naphthyridine]-1,5(2H)-dione hydrochloride]	< 0.05	0.01 to 0.1	< 0.01
Cc1c2n(c(=O)c3[nH]c4cc(N)ncc4c(=O)c13)C1(CCN(C)CC1)NC2=O [Compound 17, 8-amino-1′,12-dimethyl-2H-spiro[imidazo[1′,5′:1,6]pyrido[3,4-B][1,6]naphthyridine-3,4′-piperidine]-1,5,11(6H)-trione]	1 to 100		
Cc1c2n(c(=O)c3[nH]c4cc(N)ncc4c(=O)c13)C(C)(c1ccccc1)NC2=O (centres unmarked) [Compound 7, 8-amino-3,12-dimethyl-3-phenyl-2,3-dihydroimidazo[1′,5′:1,6]pyrido[3,4-B][1,6]naphthyridine-1,5,11(6H)-trione]	1 to 100	0.01 to 0.1	0.01 to 0.1
Cc1c2c(c(=O)n3c1C(=O)NC31CCCCC1)Nc1cc(NC(=O)OC(C)(C)C)ncc1C2 [Compound 23, Tert-Butyl (12-methyl-1,5-dioxo-1,5,6,11-tetrahydro-2H-spiro[cyclohexane-1,3-imidazole[1,5:1,6]pyrido[3,4b][1,6]naphthalene]-8-yl)aminoformate]	< 0.05	< 0.01	< 0.01
Cc1c2c(c(=O)n3c1C(=O)NC31CCCC1)Nc1cc(N)ncc1C2 [Compound 6, 8′-amino-12′-methyl-6′,11′-dihydro-2′H-spiro[cyclopentane-1,3′-imidazo[1′,5′:1,6]pyrido[3,4-b][1,6]naphthyridine]-1′,5′-dione]	< 0.05	0.01 to 0.1	< 0.01
Cc1c2c(c(=O)n3c1C(=O)NC3(C)c1cccc(Cl)c1)Nc1cc(N)ncc1C2 (centres unmarked) [Compound 14, 8-amino-3-(3-chlorophenyl)-3,12-dimethyl-2,3,6,11-tetrahydroimidazole[1′,5′:1,6]pyrido[3,4-b][1,6]naphthyridine-1,5-dione hydrochloride]	0.05 to 1		
Cc1cc2[nH]c3c(=O)n4c(c(C)c3c(=O)c2cn1)C(=O)NC41CCCCC1 [Compound 11, 8′,12′-dimethyl-1′H-spiro[cyclohexane-1,3′-imidazo[1′,5′:1,6]pyrido[3,4-b][1,6]naphthyridine]-1′,5′,11′(2′H,6′H)-trione]	1 to 100		
C=CC1(CCO)NC(=O)c2c(C)c3c(=O)c4cnc(N)cc4[nH]c3c(=O)n21 (centres unmarked) [Compound 19, 8-amino-3-(2-hydroxyethyl)-12-methyl-3-ethenyl-2,3-dihydroimidazo[1′,5′:1,6]pyrido[3,4-b][1,6]naphthyridine-1,5,11(6H)-trione]	1 to 100		
CNc1cc2c(cn1)Cc1c(C)c3n(c(=O)c1N2)C1(CCCCC1)NC3=O [Compound 22, 12′-methyl-8′-(methylamino)-6′,11′-dihydro-1′H-spiro[cyclohexane-1,3′-imidazo[1′,5′:1,6]pyrido[3,4-b][1,6]naphthopyridine]-1′,5′(2′H)-dione hydrochloride]	< 0.05	0.01 to 0.1	0.01 to 0.1
Cc1c2c(c(=O)n3c1C(=O)NC3(C)c1cccc(F)c1)Nc1cc(N)ncc1C2 (centres unmarked) [Compound 10, hydrochloride]	0.05 to 1	0.01 to 0.1	0.01 to 0.1
Cc1c2n(c(=O)c3[nH]c4cc(N)ncc4c(=O)c13)C(C)(c1cccc(Cl)c1)NC2=O (centres unmarked) [Compound 13, 8-amino-3-(3-chlorophenyl)-3,12-dimethyl-2,3-dihydroimidazole[1′,5′:1,6]pyrido[3,4-b][1,6]naphthopyridin-1,5,11(6H)-trione]	0.05 to 1	0.01 to 0.1	0.01 to 0.1
CCC(=O)Nc1cc2c(cn1)Cc1c(C)c3n(c(=O)c1N2)C1(CCCCC1)NC3=O [Compound 25]	< 0.05	0.01 to 0.1	< 0.01
Cc1cc2c(cn1)Cc1c(C)c3n(c(=O)c1N2)C1(CCCCC1)NC3=O [Compound 12, 8,12-dimethyl-6,11-dihydro-1H-spiro[cyclohexane-1,3-imidazo[1,5:1,6]pyrido[3,4-b][1,6]naphthyridine]-1,5(2H)-dione hydrochloride]	0.05 to 1		
Cc1c2n(c(=O)c3[nH]c4cc(N)ncc4c(=O)c13)C(C)(C)NC2=O [Compound 3]	0.05 to 1	0.01 to 0.1	0.01 to 0.1
Cc1c2c(c(=O)n3c1C(=O)NC3(C)c1ccccc1)Nc1cc(N)ncc1C2 (centres unmarked) [Compound 8, 8-amino-3,12-dimethyl-3-phenyl-2,3,6,11-tetrahydroimidazo[l′,5′:1,6]pyrido[3,4-b][1,6]naphthyridine-1,5-dione, hydrochloride]	0.05 to 1	0.01 to 0.1	
Cc1c2n(c(=O)c3[nH]c4ccncc4c(=O)c13)C1(CCCCC1)NC2=O [Compound 15, 12′-methyl-1′H-spiro[cyclohexane-1,3′-imidazo[1′,5′:1,6]pyrido[3,4-b][1,6]naphthyridine]-1′,5′,11′(2′H,6′H)-trione]	0.05 to 1		
Cc1c2c(c(=O)n3c1C(=O)NC31CCCCC1)Nc1cc(NC(=O)C3CCC3)ncc1C2 [Compound 27]	< 0.05	0.01 to 0.1	< 0.01
Cc1c2c(c(=O)n3c1C(=O)NC3(C)C)Nc1cc(N)ncc1C2 [Compound 4, 8-amino-3,3,12-trimethyl-2,3,6,11-tetrahydroimidazo[1,5′:1.6]pyrido[3,4-b][1,6]naphthyridine derivative-1,5-dione hydrochloride]	0.05 to 1	0.01 to 0.1	0.01 to 0.1
Cc1c2n(c(=O)c3[nH]c4cc(N)ncc4c(=O)c13)C1(CCCCC1)NC2=O [Compound 1, 8′-amino-12′-methyl-2′H-spiro[cyclohexane-1,3′-imidazo[1′,5′:1,6]pyrido[3,4-b][1,6]naphthyridine]-1′,5′,11′(6′H)-trione]	< 0.05	0.01 to 0.1	0.01 to 0.1
Cc1c2n(c(=O)c3[nH]c4cc(N)ncc4c(=O)c13)C(C)(c1cccc(F)c1)NC2=O (centres unmarked) [Compound 9, 8-amino-3-(3-fluorophenyl)-3,12-dimethyl-2,3-dihydroimidazo[1′,5′:1,6]pyrido[3,4-b][1,6]naphthopyridin-1,5,11(6H)-trione]	0.05 to 1	0.01 to 0.1	
Cl.[2H]C1([2H])c2cnc(N)cc2Nc2c1c(C)c1n(c2=O)C2(CCCCC2)NC1=O [Compound 20, 8′-amino-12′-methyl-6′,11′-dihydro-2′H-spiro[cyclohexane-1,3′-imidazo[1′,5′:1,6]pyrido[3,4-b][1,6]naphthyridine]-1′,5′-dione-11′,11′-d2 hydrochloride]	< 0.05	0.01 to 0.1	< 0.01
